Test [1] addresses T1, His-AtPTP1 (Arabidopsis thaliana Protein Tyrosine Phosphatase 1) (Arabidopsis thaliana, UniProt O82656).
T1 construct: gene PTP1
T1 sequence (O82656 1-340): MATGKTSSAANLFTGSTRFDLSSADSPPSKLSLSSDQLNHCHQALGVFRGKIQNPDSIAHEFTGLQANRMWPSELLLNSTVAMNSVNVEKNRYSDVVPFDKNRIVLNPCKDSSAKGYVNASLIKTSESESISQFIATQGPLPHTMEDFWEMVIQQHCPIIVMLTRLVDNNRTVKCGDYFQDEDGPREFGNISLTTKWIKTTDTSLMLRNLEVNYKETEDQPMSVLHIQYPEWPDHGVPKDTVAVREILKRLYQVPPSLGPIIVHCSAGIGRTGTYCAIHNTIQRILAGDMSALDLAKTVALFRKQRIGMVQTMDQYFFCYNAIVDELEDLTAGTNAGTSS
Briefly: pNPP hydrolysis after overnight pre-treatment, […] nm. The class given is biochemical. Particulars: covalent (NO donor, S-nitrosation); 250 uM to 1 mM SNAP overnight 25 C, removed by gel filtration; assay 1 mM pNPP, pH 6.3, 25 C. In general terms: In gel filtration, larger molecules generally elute earlier.

The target in test [2] is T1, His-AtPTP1 (Arabidopsis thaliana Protein Tyrosine Phosphatase 1). Briefly: pNPP hydrolysis after overnight pre-treatment, […] nm; biotin switch LC-MS/MS. The class given is biochemical. Particulars: covalent (S-nitrosation of catalytic C265, reversible by DTT); 100 or 500 uM GSNO overnight 25 C, removed by gel filtration; assay 1 mM pNPP, pH 6.3, 25 C, no DTT.

As for `CC(=O)NC(C(=O)O)C(C)(C)SN=O` (centres unmarked) [S-nitroso-N-acetylpenicillamine], the relative activity result in test [1] is reported as “Treatment of His-AtPTP1 with SNAP also led to a significant decrease in its activity”. With `N[C@@H](CCC(=O)N[C@@H](CSN=O)C(=O)NCC(=O)O)C(=O)O` [S-nitrosoglutathione], the relative activity result in test [2] was “GSNO inhibited the enzymatic activity of His-AtPTP1”.

(Values after publication PMC8867174, “S-Nitrosation of Arabidopsis thaliana Protein Tyrosine Phosphatase 1 Prevents Its Irreversible Oxidation by Hydrogen Peroxide” (Frontiers in Plant Science, 2022).)
